Experimental data: patent publication US11034672B1, “Tyrosine kinase inhibitor compositions, methods of making and methods of use” (Black Diamond Therapeutics, Inc., priority 2018, dated 2021)

Columns and labels:
Format in all cases: cell-based
EGFR WT [1] = target: T1, EGFR WT (Homo sapiens, UniProt P00533); experiment: Activity for inhibiting EGFR (Table A), EGFR WT; settings: read-out: EGFR WT, potency code (IC50)
EGFR V3 [2] = target: T2, EGFR V3 (Homo sapiens, UniProt P00533, DELINS30-297G); experiment: Activity for inhibiting EGFR (Table A), EGFR V3 (EGFR-Viii); settings: read-out: EGFR V3, potency code (IC50)
T2 construct: expressed in transfected cells; host or cells: BaF3 (murine pro-B), retroviral pMXs-IRES-Blasticidin
T2 sequence (P00533 with tags, fused parts or gaps DELINS30-297G): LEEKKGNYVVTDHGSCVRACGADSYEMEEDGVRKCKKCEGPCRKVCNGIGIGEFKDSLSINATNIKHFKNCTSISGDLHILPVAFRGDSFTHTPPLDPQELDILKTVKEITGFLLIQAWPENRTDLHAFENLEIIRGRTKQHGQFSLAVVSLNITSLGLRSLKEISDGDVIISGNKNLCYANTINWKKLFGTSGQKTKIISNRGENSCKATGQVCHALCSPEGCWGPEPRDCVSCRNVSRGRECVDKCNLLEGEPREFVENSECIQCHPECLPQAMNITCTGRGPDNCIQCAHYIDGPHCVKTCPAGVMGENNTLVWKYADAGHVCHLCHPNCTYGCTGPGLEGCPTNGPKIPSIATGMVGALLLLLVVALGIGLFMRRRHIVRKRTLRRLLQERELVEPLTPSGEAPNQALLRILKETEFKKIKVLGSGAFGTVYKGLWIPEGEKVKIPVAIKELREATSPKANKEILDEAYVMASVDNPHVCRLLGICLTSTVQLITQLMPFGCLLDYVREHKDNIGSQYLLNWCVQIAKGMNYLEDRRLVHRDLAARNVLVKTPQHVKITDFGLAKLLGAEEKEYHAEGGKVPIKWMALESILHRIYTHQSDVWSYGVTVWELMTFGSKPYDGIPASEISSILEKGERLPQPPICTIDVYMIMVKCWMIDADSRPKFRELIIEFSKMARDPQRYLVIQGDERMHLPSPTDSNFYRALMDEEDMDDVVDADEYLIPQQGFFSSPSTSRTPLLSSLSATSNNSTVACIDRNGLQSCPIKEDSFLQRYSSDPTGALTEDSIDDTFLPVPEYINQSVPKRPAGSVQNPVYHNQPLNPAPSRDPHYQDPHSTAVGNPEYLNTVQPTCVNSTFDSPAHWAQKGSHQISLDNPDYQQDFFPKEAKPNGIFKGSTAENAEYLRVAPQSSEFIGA

HER2 S310F [3] = target: T3, HER2 S310F (Homo sapiens, UniProt P04626, S310F); experiment: Activity for inhibiting HER2 (Table B), HER2 S310F; settings: read-out: HER2 S310F, potency code (IC50)
T3 construct: expressed in transfected cells; host or cells: BaF3 (murine pro-B)
T3 sequence (P04626 23-1255 S310F): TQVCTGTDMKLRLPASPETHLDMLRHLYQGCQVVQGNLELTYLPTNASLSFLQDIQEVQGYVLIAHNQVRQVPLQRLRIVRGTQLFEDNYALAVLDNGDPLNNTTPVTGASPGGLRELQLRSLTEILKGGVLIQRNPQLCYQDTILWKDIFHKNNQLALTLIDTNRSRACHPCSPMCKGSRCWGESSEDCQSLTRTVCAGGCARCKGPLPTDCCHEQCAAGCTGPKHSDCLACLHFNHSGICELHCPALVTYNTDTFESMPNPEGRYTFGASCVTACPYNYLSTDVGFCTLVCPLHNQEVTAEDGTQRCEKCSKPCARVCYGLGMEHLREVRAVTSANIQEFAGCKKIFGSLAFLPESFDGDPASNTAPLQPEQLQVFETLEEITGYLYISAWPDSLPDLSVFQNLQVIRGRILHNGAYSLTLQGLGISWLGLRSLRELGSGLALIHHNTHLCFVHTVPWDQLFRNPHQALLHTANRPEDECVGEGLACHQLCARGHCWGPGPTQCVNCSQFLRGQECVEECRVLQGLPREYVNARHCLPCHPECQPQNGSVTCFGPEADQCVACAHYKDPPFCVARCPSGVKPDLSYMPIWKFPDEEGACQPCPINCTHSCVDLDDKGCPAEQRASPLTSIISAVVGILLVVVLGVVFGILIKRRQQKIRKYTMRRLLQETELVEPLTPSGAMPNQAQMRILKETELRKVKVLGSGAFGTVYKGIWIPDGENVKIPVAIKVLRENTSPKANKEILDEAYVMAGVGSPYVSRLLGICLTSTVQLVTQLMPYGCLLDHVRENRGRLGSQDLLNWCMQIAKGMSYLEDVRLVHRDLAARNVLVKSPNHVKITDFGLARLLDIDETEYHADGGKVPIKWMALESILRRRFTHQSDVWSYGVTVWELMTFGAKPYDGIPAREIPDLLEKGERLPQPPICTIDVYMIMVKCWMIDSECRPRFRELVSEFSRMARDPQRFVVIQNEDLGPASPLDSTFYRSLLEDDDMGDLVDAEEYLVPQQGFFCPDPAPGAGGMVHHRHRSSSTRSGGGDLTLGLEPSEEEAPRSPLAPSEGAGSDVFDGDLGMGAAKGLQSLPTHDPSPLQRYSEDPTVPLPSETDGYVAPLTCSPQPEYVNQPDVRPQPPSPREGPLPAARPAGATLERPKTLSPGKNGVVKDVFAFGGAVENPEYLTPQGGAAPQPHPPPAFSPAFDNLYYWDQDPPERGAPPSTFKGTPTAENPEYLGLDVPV
Procedure: (§1) EC50 values were determined with the same application.

HER2 YVMA [4] = target: T4, HER2 YVMA (Homo sapiens, UniProt P04626, INS775YVMA); experiment: Activity for inhibiting HER2 (Table B), HER2 YVMA; settings: read-out: HER2 YVMA, potency code (IC50)
T4 construct: expressed in transfected cells; host or cells: BaF3 (murine pro-B)
T4 sequence (P04626 with tags, fused parts or gaps INS775YVMA): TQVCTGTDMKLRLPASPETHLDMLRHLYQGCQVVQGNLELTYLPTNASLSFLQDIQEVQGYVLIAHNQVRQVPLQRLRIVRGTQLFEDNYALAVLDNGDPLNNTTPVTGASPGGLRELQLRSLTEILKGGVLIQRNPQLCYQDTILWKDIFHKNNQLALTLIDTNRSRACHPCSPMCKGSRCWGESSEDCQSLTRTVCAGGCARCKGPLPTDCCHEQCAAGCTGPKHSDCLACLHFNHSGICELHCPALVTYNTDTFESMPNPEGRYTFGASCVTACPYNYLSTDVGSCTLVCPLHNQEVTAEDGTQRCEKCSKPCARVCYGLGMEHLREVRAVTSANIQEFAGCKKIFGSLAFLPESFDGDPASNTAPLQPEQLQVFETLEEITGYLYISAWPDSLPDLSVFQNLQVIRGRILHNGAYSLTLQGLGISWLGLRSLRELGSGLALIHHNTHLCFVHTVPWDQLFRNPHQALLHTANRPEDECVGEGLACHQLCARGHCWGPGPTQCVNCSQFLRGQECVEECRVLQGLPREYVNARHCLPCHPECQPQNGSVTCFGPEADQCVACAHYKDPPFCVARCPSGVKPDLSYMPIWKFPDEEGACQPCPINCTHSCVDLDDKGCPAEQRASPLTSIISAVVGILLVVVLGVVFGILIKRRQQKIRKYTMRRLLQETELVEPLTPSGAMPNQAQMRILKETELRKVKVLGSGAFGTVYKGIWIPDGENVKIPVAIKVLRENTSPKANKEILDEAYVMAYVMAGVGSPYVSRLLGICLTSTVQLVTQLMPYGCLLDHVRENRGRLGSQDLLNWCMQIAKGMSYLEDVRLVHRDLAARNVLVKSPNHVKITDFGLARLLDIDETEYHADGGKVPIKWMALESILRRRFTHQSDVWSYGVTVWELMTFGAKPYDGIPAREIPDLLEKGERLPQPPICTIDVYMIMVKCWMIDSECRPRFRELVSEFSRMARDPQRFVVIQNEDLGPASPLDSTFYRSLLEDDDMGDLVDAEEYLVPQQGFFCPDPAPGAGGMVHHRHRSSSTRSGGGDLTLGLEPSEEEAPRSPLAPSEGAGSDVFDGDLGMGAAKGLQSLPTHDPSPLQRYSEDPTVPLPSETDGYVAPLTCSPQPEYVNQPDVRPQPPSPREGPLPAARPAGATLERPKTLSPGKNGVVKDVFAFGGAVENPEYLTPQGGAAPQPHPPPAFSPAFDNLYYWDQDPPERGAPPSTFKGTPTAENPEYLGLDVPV
Procedure: as §1

EGFR WT [5] = target: T1, EGFR WT; experiment: BaF3 cell proliferation assay, EGFR WT (Table A); settings: potency code, 3 days, CellTiterGlo, read-out: EGFR WT (Activity for Inhibiting EGFR)
Procedure: (§2) Retroviral Production: EGFR mutants were subcloned into pMXs-IRES-Blasticidin (RTV-016, Cell Biolabs, San Diego, Calif.). Retroviral expression vector retrovirus was produced by transient transfection of HEK 293T cells with the retroviral EGFR mutant expression vector pMXs-IRES-Blasticidin (RTV-016, Cell Biolabs), pCMV-Gag-Pol vector and pCMV-VSV-G-Envelope vector. Briefly, HEK 293T/17 cells were plated in 100 mm collagen coated plate (354450, Corning Life Sciences, Tewksbury, Mass.) (4×10^5 per plate) and incubated overnight. The next day, retroviral plasmids (3 μg of EGFR mutant, 1.0 μg of pCMV-Gag-Pol and 0.5 μg pCMV-VSV-G) were mixed in 500 μl of Optimem (31985, Life Technologies). The mixture was incubated at room temperature for 5 min and then added to Optimem containing transfection reagent Lipofectamine (11668, Invitrogen) and incubated for 20 minutes. Mixture was then added dropwise to HEK 293T cells. The next day the medium was replaced with fresh culture medium and retrovirus was harvested @ 24 and 48 hrs.
(§3) Generation of EGFR mutant stable cell lines: BaF3 cells (1.5E5 cells) were infected with 1 ml of viral supernatant supplemented with 8 μg/ml polybrene by centrifuging for 30 min at 1000 rpm. Cells were placed in a 37° C. incubator overnight. Cells were then spun for 5 minutes to pellet the cells. Supernatant was removed and cells re-infected a fresh 1 ml of viral supernatant supplemented with 8 μg/ml polybrene by centrifuging for 30 min at 1000 rpm. Cells were placed in 37° C. incubator overnight. […] After 48 hours cells were selected for retroviral infection in 10 μg/ml Blasticidin for one week. Blasticidin resistant populations were washed twice in phosphate buffered saline before plating in media lacking IL-3 to select for IL-3 independent growth.
as §1

EGFR V3 [6] = target: T2, EGFR V3; experiment: BaF3 cell proliferation assay, EGFR V3 (Table A); settings: potency code, 3 days, CellTiterGlo, read-out: EGFR V3 (Activity for Inhibiting EGFR)
Procedure: as §2, §3, §1

HER2 S310F [7] = target: T3, HER2 S310F; experiment: BaF3 cell proliferation assay, HER2 S310F (Table B); settings: potency code, 3 days, CellTiterGlo, read-out: HER2 S310F (Activity for Inhibiting HER2)
HER2 YVMA [8] = target: T4, HER2 YVMA; experiment: BaF3 cell proliferation assay, HER2 YVMA (Table B); settings: potency code, 3 days, CellTiterGlo, read-out: HER2 YVMA (Activity for Inhibiting HER2)

T1 sequence (P00533 25-1210 N540K): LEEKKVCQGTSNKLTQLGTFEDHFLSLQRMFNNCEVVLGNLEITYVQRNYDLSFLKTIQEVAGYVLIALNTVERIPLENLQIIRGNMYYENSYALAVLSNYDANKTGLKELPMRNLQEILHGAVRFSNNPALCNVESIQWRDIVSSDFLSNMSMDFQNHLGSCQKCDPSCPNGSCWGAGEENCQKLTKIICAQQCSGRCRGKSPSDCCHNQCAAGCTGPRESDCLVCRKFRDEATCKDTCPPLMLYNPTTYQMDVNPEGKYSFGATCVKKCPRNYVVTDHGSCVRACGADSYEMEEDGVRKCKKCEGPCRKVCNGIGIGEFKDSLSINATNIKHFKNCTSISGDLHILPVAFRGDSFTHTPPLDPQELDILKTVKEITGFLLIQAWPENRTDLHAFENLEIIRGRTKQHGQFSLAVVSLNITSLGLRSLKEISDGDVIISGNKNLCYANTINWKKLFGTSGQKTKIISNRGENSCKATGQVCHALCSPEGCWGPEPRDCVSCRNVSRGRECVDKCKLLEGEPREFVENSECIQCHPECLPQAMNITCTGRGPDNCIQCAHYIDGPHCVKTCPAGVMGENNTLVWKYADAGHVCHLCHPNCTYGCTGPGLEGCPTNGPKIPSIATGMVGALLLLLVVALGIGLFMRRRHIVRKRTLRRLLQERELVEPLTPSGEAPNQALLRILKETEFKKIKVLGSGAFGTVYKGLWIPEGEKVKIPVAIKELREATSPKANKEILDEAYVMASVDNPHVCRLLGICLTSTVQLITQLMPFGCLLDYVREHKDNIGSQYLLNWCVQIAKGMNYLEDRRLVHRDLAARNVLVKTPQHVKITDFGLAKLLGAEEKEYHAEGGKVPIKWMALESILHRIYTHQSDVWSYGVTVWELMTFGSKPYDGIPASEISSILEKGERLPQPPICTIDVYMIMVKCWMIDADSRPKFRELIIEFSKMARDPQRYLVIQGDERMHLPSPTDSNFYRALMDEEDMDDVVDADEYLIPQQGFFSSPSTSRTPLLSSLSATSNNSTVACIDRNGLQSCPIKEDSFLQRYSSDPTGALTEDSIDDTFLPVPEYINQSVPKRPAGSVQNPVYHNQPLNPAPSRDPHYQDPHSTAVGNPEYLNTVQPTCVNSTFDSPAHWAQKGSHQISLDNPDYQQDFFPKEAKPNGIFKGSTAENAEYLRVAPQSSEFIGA

Row | Compound | IC50 (EGFR WT [1]) [nM] | IC50 (EGFR V3 [2]) [nM] | IC50 (HER2 S310F [3]) [nM] | IC50 (HER2 YVMA [4]) [nM] | IC50 (EGFR WT [5]) [nM] | IC50 (EGFR V3 [6]) [nM] | IC50 (HER2 S310F [7]) [nM] | IC50 (HER2 YVMA [8]) [nM]
1 | C=CC(=O)Nc1cc2c(Nc3ccc(OCc4cccc(OC(F)(F)F)n4)c(Cl)c3)ncnc2cc1OCCN1CCOCC1 [compound 24] | > 1000 | 200 to 300 | 200 to 300 | 300 to 500 | > 1000 | 200 to 300 | 200 to 300 | 300 to 500
2 | C=CC(=O)Nc1cc2c(Nc3ccc(OCc4ccccn4)c(Cl)c3)ncnc2cc1N1CC2(CN(C)C2)C1 [compound 45] | 500 to 1000 | 200 to 300 | 300 to 500 | > 1000 | 500 to 1000 | 200 to 300 | 300 to 500 | > 1000
3 | C=CC(=O)Nc1cc2c(Nc3ccc(OCc4ccccn4)c(Cl)c3)ncnc2cc1N1CC2(CCN2C)C1 [compound 50] | > 1000 | 30 to 50 | 200 to 300 | > 1000 | > 1000 | 30 to 50 | 200 to 300 | > 1000
4 | C=CC(=O)Nc1cc2c(Nc3ccc(OCc4ccccn4)c(Cl)c3)ncnc2cc1OCCN(C)C1CC1 [compound 53] | > 1000 | 30 to 50 | 30 to 50 | 100 to 200 | > 1000 | 30 to 50 | 30 to 50 | 100 to 200
5 | C=CC(=O)Nc1cc2c(Nc3ccc(OCc4ccccn4)c(Cl)c3)ncnc2cc1OCC1(N)CC1 [compound 55] | > 1000 | 50 to 100 | 50 to 100 | 200 to 300 | > 1000 | 50 to 100 | 50 to 100 | 200 to 300
6 | C=CC(=O)Nc1cc2c(Nc3ccc(OCc4ccccn4)cn3)ncnc2cc1OC1CCN(C)C1 (stereo not drawn) [compound 61] | > 1000 | 300 to 500 | 300 to 500 | > 1000 | > 1000 | 300 to 500 | 300 to 500 | > 1000
7 | C=CC(=O)Nc1cc2c(Nc3ccc(OCc4ccccn4)c(Cl)c3)ncnc2cc1N1CCC(N(C)C)C1 (stereo not drawn) [compound 64] | > 1000 | 100 to 200 | 300 to 500 | > 1000 | > 1000 | 100 to 200 | 300 to 500 | > 1000
8 | C=CC(=O)Nc1cc2c(Nc3ccc(OCc4ccccn4)nc3)ncnc2cc1OCCN1CCOCC1 [compound 71] | 500 to 1000 | 50 to 100 | 200 to 300 | > 1000 | 500 to 1000 | 50 to 100 | 200 to 300 | > 1000
9 | C=CC(=O)Nc1cc2c(Nc3ccc(OCc4ccccn4)nc3)ncnc2cc1O[C@@H]1CCN(C)C1 [compound 72] | > 1000 | 300 to 500 | 300 to 500 | > 1000 | > 1000 | 300 to 500 | 300 to 500 | > 1000
10 | C=CC(=O)Nc1cc2c(Nc3ccc(Oc4ccc(C)nc4)c(C)c3)ncnc2cc1OCCN1CCOCC1 [compound 73] | 500 to 1000 | 50 to 100 | 30 to 50 | 300 to 500 | 500 to 1000 | 50 to 100 | 30 to 50 | 300 to 500
11 | C=CC(=O)Nc1cc2c(Nc3ccc(Oc4cccnc4)cc3)ncnc2cc1OCCN1CCOCC1 [compound 75] | > 1000 | 100 to 200 | 100 to 200 | 300 to 500 | > 1000 | 100 to 200 | 100 to 200 | 300 to 500
12 | C=CC(=O)Nc1cc2c(Nc3ccc(OCc4ccccn4)c(Cl)c3)ncnc2cc1OCCN1CCC(N(C)C)CC1 [compound 76] | 200 to 300 | 50 to 100 | 30 to 50 | 100 to 200 | 200 to 300 | 50 to 100 | 30 to 50 | 100 to 200
13 | C=CC(=O)Nc1cc2c(Nc3ccc(OCc4ccccn4)c(Cl)c3)ncnc2cc1OCCN1CC2CN(C)CC2C1 (stereo not drawn) [compound 77] | 100 to 200 | 50 to 100 | 20 to 30 | 100 to 200 | 100 to 200 | 50 to 100 | 20 to 30 | 100 to 200
14 | C=CC(=O)Nc1cc2c(Nc3ccc(OCc4ccccn4)cc3)ncnc2cc1OCC1COCCN1 (stereo not drawn) [compound 79] | 300 to 500 | 50 to 100 | 100 to 200 | > 1000 | 300 to 500 | 50 to 100 | 100 to 200 | > 1000
15 | C=CC(=O)Nc1cc2c(Nc3ccc(OCc4ccccn4)cc3)ncnc2cc1OCCN1CCC(N(C)C)CC1 [compound 80] | 100 to 200 | 50 to 100 | 50 to 100 | 500 to 1000 | 100 to 200 | 50 to 100 | 50 to 100 | 500 to 1000
16 | C=CC(=O)Nc1cc2c(Nc3ccc(Oc4ccc(C)nc4)c(C)c3)ncnc2cc1C#CC(C)(C)N(C)C [compound 82] | 500 to 1000 | 300 to 500 | 50 to 100 | 500 to 1000 | 500 to 1000 | 300 to 500 | 50 to 100 | 500 to 1000
17 | C=CC(=O)Nc1cc2c(Nc3ccc(OCc4ccccn4)c(Cl)c3)ncnc2cc1C#CC1CCCN1 (stereo not drawn) [compound 83, N-(4-((3-chloro-4-(pyridin-2-ylmethoxy)phenyl)amino)-7-(pyrrolidin-2-ylethynyl)quinazolin-6-yl)acrylamide] | 500 to 1000 | 50 to 100 | 10 to 20 | 100 to 200 | 500 to 1000 | 50 to 100 | 10 to 20 | 100 to 200
18 | C=CC(=O)Nc1cc2c(Nc3ccc(OCc4ccccn4)c(Cl)c3)ncnc2cc1C#C[C@H]1CCNC1 [compound 86, N-(4-((3-chloro-4-(pyridin-2-ylmethoxy)phenyl)amino)-7-(pyrrolidin-3-ylethynyl)quinazolin-6-yl)acrylamide] | 500 to 1000 | 100 to 200 | 20 to 30 | 100 to 200 | 500 to 1000 | 100 to 200 | 20 to 30 | 100 to 200
19 | C=CC(=O)Nc1cc2c(Nc3ccc(OCc4ccccn4)c(Cl)c3)ncnc2cc1C#C[C@@H]1CCCN1C [compound 87, N-(4-((3-chloro-4-(pyridin-2-ylmethoxy)phenyl)amino)-7-((1-methylpyrrolidin-2-yl)ethynyl)quinazolin-6-yl)acrylamide] | > 1000 | 100 to 200 | 30 to 50 | 200 to 300 | > 1000 | 100 to 200 | 30 to 50 | 200 to 300
20 | C=CC(=O)Nc1cc2c(Nc3ccc(OCc4ccccn4)c(Cl)c3)ncnc2cc1C#CC(C)(C)NC [compound 88, N-(4-((3-chloro-4-(pyridin-2-ylmethoxy)phenyl)amino)-7-(3-methyl-3-(methylamino)but-1-yn-1-yl)quinazolin-6-yl)acrylamide] | 500 to 1000 | 30 to 50 | 10 to 20 | 100 to 200 | 500 to 1000 | 30 to 50 | 10 to 20 | 100 to 200
21 | CC#CC(=O)Nc1cc2c(Nc3ccc(OCc4ccccn4)c(Cl)c3)ncnc2cc1C#CC(C)(C)N1CCN(C)CC1 [compound 89, N-(4-((3-chloro-4-(pyridin-2-ylmethoxy)phenyl)amino)-7-(3-methyl-3-(4-methylpiperazin-1-yl)but-1-yn-1-yl)quinazolin-6-yl)but-2-ynamide] | 50 to 100 | 30 to 50 | 10 to 20 | 50 to 100 | 50 to 100 | 30 to 50 | 10 to 20 | 50 to 100
